What was measured:
MKN45 cells = assay: MKN45 cell proliferation assay (CellTiter-Glo); format: cell-based; settings: Homo sapiens, MKN-45, 72 h, MKN45 cell line, 3 days incubation, at least duplicate experiments, read-out: Prolif. IC50
Protocol: The effect of inhibitors on the proliferation of MKN45 cells was determined using the following protocol. MKN45 cells were plated in Corning 3917 96-well white tissue culture treated plates in growth medium (RPMI, 10% FCS) at a density of 5000 cells/well in a total volume of 135 μL and incubated at 37° C., 5% CO2, 95% humidity overnight. The following day, one-tenth volume of a 10× concentration of compounds was added to the wells in an 8-point dilution series. The dilution series was composed of an initial 1:5 dilution of a 10 mM stock of compound in DMSO, followed by serial 1:4 dilutions in DMSO, then a 1:20 dilution in growth medium prior to the 1:10 dilution into the cell plate. Final DMSO concentration on the cells was 0.1%, there were control wells treated with both 0.1% DMSO and no DMSO. The typical dilution range is 10 μM to 0.6 nM. Once the compound was added to the cells, plates were incubated for 3 days at 37° C., 5% CO2 at 95% humidity. On the third day, after allowing all cells and reagents to come to room temperature, 25 μL of CellTiter-Glo reagent (Promega # G7573) was added to the wells. Plates were shaken on a platform for 10 minutes prior to reading luminescence for 0.1 seconds. The signal of the control wells was taken as 100% growth and growth inhibition was expressed as percent of control. IC50 values were determined from the percent of control data using a standard four-parameter model.
(§1) The IC50 values of exemplary compounds of the present invention determined in a cell proliferation assay using the MKN45 cell line according to the procedures described herein in at least duplicate experiments are abbreviated as follows and are shown in Table 2: A, IC50≦0.1 μM; B, 0.1 μM<IC50≦1 μM; C, 1 μM<IC50≦10 μM; D, IC50>10 μM; ND, not determined. The Example # of Table 2 corresponds to the compound example number as illustrated in the Examples section.

phosphorylated c-MET = target: T1, phosphorylated c-MET (Homo sapiens, UniProt P08581); assay: c-MET cell mechanistic assay (phosphorylated c-MET in MKN45 cells); format: cell-based; settings: MKN45 cell line, four hours incubation, phosphorylated c-MET levels, at least duplicate experiments; read-out: Met mech IC50
T1 construct: endogenous in cells; host or cells: MKN45
Protocol: The cellular activity of the compounds of the present invention may be determined by the following procedure. MKN45 cells were plated in Falcon 3072 96-well plates in growth media (RPMI, 10% FBS, 1% L-glutamine) at a density of 5000 cells/well and incubated at 37° C., 5% CO2 overnight. The following day, one-tenth volume of a 10× concentration of compounds was added to the wells in a 6-point dilution series. The dilutions series was composed of an initial 1:5 dilution in DMSO, followed by a 1:10 dilution in growth media, for a final DMSO concentration on cells of 0.5%. Control wells were treated with 0.5% DMSO. The typical range of dilution was 10 μM to 3 nM. Once compound was added to the cells, plates were incubated for four hours at 37° C., 5% CO2. Plates were then washed in PBS, and lysed in triton-based lysis buffer. Lysates were transferred to a precoated capture plate made by Biosource (Cat # KH00281). The phosphorylated c-MET levels were measured by incubating with a rabbit polyclonal antibody against phosphorylated c-MET ([pYpYpY1230/1234/1235]) followed by an anti-rabbit antibody conjugated to HRP. Signal was measured on a Wallac Victor plate reader at 450 nm. The DMSO signal of the control wells was defined as 100% and the percent of inhibition of phosphorylated c-Met was expressed as percent of control. IC50 values were determined from the percent of control data using a standard four-parameter model.
as §1, with “in a c-MET cell mechanistic” for “in a cell proliferation”, “c-MET cell mechanistic assay using” for “a cell proliferation assay using”, “in Table 3: A, IC50≦0.1” for “in Table 2: A, IC50≦0.1”, “of Table 3 corresponds to” for “of Table 2 corresponds to”

T1 sequence (P08581 25-1390): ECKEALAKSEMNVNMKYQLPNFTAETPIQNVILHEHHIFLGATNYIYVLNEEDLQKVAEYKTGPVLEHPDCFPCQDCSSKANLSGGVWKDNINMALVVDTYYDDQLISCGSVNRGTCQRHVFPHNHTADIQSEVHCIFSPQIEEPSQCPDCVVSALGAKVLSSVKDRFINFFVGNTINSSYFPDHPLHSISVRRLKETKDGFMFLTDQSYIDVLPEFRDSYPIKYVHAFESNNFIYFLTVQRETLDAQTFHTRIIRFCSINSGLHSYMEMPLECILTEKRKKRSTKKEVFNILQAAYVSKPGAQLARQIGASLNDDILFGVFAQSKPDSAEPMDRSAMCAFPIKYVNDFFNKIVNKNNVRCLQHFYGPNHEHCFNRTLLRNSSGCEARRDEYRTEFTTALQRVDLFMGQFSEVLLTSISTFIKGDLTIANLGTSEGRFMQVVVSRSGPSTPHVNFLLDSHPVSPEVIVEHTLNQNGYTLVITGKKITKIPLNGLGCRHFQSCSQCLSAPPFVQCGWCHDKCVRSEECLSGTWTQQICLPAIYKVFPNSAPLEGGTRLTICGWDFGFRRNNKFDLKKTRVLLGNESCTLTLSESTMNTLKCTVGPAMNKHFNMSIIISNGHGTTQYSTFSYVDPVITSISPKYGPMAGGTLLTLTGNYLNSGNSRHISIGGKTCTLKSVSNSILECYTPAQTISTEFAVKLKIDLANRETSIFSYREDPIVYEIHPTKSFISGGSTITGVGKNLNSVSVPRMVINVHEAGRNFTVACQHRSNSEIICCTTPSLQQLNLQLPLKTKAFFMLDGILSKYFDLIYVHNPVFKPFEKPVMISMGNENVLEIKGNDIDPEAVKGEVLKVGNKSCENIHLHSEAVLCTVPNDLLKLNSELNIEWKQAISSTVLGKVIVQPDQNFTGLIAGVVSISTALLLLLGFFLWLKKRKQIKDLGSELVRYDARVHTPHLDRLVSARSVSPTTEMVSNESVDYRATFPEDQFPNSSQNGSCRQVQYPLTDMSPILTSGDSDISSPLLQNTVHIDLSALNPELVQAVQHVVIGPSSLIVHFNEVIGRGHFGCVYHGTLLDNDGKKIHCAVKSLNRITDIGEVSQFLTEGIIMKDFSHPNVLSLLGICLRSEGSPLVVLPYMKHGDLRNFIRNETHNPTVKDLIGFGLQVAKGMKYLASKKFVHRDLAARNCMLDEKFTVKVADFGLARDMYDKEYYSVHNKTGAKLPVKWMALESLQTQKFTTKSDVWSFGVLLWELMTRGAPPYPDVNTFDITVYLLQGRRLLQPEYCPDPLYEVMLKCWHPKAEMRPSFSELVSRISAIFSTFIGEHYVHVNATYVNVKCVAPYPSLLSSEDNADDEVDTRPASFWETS

IC50 (MKN45 cells) [µM]	IC50 (phosphorylated c-MET) [µM]	SMILES
0.1 to 1	0.1 to 1	CC(c1c(Cl)ccc(F)c1Cl)c1c[nH]c2ncc(-c3ccc(C(=O)N(C)C)cc3)cc12 (stereo not shown) [Example 3, 4-{3-[1-(2,6-Dichloro-3-fluorophenyl)ethyl]-1H-pyrrolo[2,3-b]pyridin-5-yl}-N,N-dimethylbenzamide]
0.1 to 1	0.1 to 1	CC(c1c(Cl)ccc(F)c1Cl)c1c[nH]c2ncc(-c3ccc(C(=O)N4CCCC4)cc3)cc12 (stereo not shown) [Example 4, (4-{3-[1-(2,6-Dichloro-3-fluorophenyl)ethyl]-1H-pyrrolo[2,3-b]pyridin-5-yl}phenyl)pyrrolidin-1-ylmethanone]
0.1 to 1	0.1 to 1	CNC(=O)c1ccc(-c2cnc3[nH]cc(C(C)c4c(Cl)ccc(F)c4Cl)c3c2)cc1 (stereo not shown) [Example 5, 4-{3-[1-(2,6-Dichloro-3-fluorophenyl)ethyl]-1H-pyrrolo[2,3-b]pyridin-5-yl}-N-methylbenzamide]
1 to 10	0.1 to 1	COCCNC(=O)c1ccc(-c2cnc3[nH]cc(C(C)c4c(Cl)ccc(F)c4Cl)c3c2)cc1 (stereo not shown) [Example 6, 4-{3-[1-(2,6-Dichloro-3-fluorophenyl)ethyl]-1H-pyrrolo[2,3-b]pyridin-5-yl}-N-(2-methoxyethyl)benzamide]
0.1 to 1	0.1 to 1	CC(c1c(Cl)ccc(F)c1Cl)c1c[nH]c2ncc(-c3ccc(C(=O)NCCN4CCOCC4)cc3)cc12 (stereo not shown) [Example 7, 4-{3-[1-(2,6-Dichloro-3-fluorophenyl)ethyl]-1H-pyrrolo[2,3-b]pyridin-5-yl}-N-(2-morpholin-4-ylethyl)benzamide]
0.1 to 1	0.1 to 1	CC(c1c(Cl)ccc(F)c1Cl)c1c[nH]c2ncc(-c3ccc(C(=O)N4CCOCC4)cc3)cc12 (stereo not shown) [Example 13, (4-{3-[1-(2,6-Dichloro-3-fluorophenyl)ethyl]-1H-pyrrolo[2,3-b]pyridin-5-yl}phenyl)morpholin-4-ylmethanone]
0.1 to 1	≤ 0.1	CC(c1c(Cl)ccc(F)c1Cl)c1c[nH]c2ncc(-c3ccc(C(=O)N4CCN(C)CC4)cc3)cc12 (stereo not shown) [Example 15, (4-{3-[1-(2,6-Dichloro-3-fluorophenyl)ethyl]-1H-pyrrolo[2,3-b]pyridin-5-yl}phenyl)-(4-methylpiperazin-1-yl)methanone]
0.1 to 1	0.1 to 1	CC(c1c(Cl)ccc(F)c1Cl)c1c[nH]c2ncc(-c3ccc(N)cc3)cc12 (stereo not shown) [Example 18, 4-{3-[1-(2,6-Dichloro-3-fluorophenyl)ethyl]-1H-pyrrolo[2,3-b]pyridin-5-yl}phenylamine]
> 10	1 to 10	CC(c1c(Cl)ccc(F)c1Cl)c1c[nH]c2ncc(-c3ccccc3)cc12 (stereo not shown) [Example 19, 3-[1-(2,6-Dichloro-3-fluorophenyl)ethyl]-5-phenyl-1H-pyrrolo[2,3-b]-pyridine]
0.1 to 1	0.1 to 1	CC(c1c(Cl)ccc(F)c1Cl)c1c[nH]c2ncc(-c3ccc(C(=O)NCCN(C)C)cc3)cc12 (stereo not shown) [Example 20, 4-{3-[1-(2,6-Dichloro-3-fluorophenyl)ethyl]-1H-pyrrolo[2,3-b]pyridin-5-yl}-N-(2-dimethylaminoethyl)benzamide]
1 to 10	1 to 10	CC(c1c(Cl)ccc(F)c1Cl)c1c[nH]c2ncc(-c3ccc(S(=O)(=O)N(C)C)cc3)cc12 (stereo not shown) [Example 22, 4-{3-[1-(2,6-Dichloro-3-fluorophenyl)ethyl]-1H-pyrrolo[2,3-b]pyridin-5-yl}-N,N-dimethylbenzenesulfonamide]
1 to 10	0.1 to 1	CNS(=O)(=O)c1ccc(-c2cnc3[nH]cc(C(C)c4c(Cl)ccc(F)c4Cl)c3c2)cc1 (stereo not shown) [Example 23, 4-{3-[1-(2,6-Dichloro-3-fluorophenyl)ethyl]-1H-pyrrolo[2,3-b]pyridin-5-yl}-N-methylbenzenesulfonamide]
0.1 to 1	0.1 to 1	CC(c1c(Cl)ccc(F)c1Cl)c1c[nH]c2ncc(-c3ccc(C(=O)NCCO)cc3)cc12 (stereo not shown) [Example 24, 4-{3-[1-(2,6-Dichloro-3-fluorophenyl)ethyl]-1H-pyrrolo[2,3-b]pyridin-5-yl}-N-(2-hydroxyethyl)benzamide]
0.1 to 1	0.1 to 1	CC(c1c(Cl)ccc(F)c1Cl)c1c[nH]c2ncc(-c3cn[nH]c3)cc12 (stereo not shown) [Example 26, 3-[1-(2,6-Dichloro-3-fluorophenyl)-ethyl]-5-(1H-pyrazol-4-yl)-1H-pyrrolo[2,3-b]pyridine]
0.1 to 1	≤ 0.1	CC(c1c(Cl)ccc(F)c1Cl)c1c[nH]c2ncc(-c3cnn(C)c3)cc12 (stereo not shown) [Example 27, 3-[1-(2,6-Dichloro-3-fluorophenyl)-ethyl]-5-(1-methyl-1H-pyrazol-4-yl)-1H-pyrrolo[2,3-b]pyridine]
≤ 0.1	≤ 0.1	CC(c1c(Cl)ccc(F)c1Cl)c1c[nH]c2ncc(-c3cnn(C4CCN(C(=O)N(C)C)CC4)c3)cc12 (stereo not shown) [Example 28, 4-(4-{3-[1-(2,6-Dichloro-3-fluorophenyl)ethyl]-1H-pyrrolo[2,3-b]pyridin-5-yl}-pyrazol-1-yl)-piperidine-1-carboxylic acid dimethylamide]
0.1 to 1	0.1 to 1	CC(c1c(Cl)ccc(F)c1Cl)c1c[nH]c2ncc(-c3cnn(C4CCN(CC(F)(F)F)CC4)c3)cc12 (stereo not shown) [Example 29, 3-[1-(2,6-Dichloro-3-fluorophenyl)ethyl]-5-{1-[1-(2,2,2-trifluoroethyl)-piperidin-4-yl]-1H-pyrazol-4-yl}-1H-pyrrolo[2,3-b]pyridine]
0.1 to 1	≤ 0.1	CC(c1c(Cl)ccc(F)c1Cl)c1c[nH]c2ncc(-c3cnn(C(C)C)c3)cc12 (stereo not shown) [Example 30, 3-[1-(2,6-Dichloro-3-fluorophenyl)ethyl]-5-(1-isopropyl-1H-pyrazol-4-yl)-1H-pyrrolo[2,3-b]pyridine]
≤ 0.1	≤ 0.1	CC(c1c(Cl)ccc(F)c1Cl)c1c[nH]c2ncc(-c3cnn(CCN4CCOCC4)c3)cc12 (stereo not shown) [Example 31, 3-[1-(2,6-Dichloro-3-fluorophenyl)ethyl]-5-[1-(2-morpholin-4-ylethyl)-1H-pyrazol-4-yl]-1H-pyrrolo[2,3-b]pyridine]
0.1 to 1	≤ 0.1	CC(c1c(Cl)ccc(F)c1Cl)c1c[nH]c2ncc(C3=CCN(C(N)=O)CC3)cc12 (stereo not shown) [Example 33, 4-{3-[1-(2,6-Dichloro-3-fluorophenyl)ethyl]-1H-pyrrolo[2,3-b]pyridin-5-yl}-3,6-dihydro-2H-pyridine-1-carboxamide]
0.1 to 1	0.1 to 1	CC(c1c(Cl)ccc(F)c1Cl)c1c[nH]c2ncc(C3=CCN(C(=O)N(C)C)CC3)cc12 (stereo not shown) [Example 36, 4-{3-[1-(2,6-Dichloro-3-fluorophenyl)-ethyl]-1H-pyrrolo[2,3-b]pyridin-5-yl}-3,6-dihydro-2H-pyridine-1-carboxylic acid dimethylamide]
0.1 to 1	0.1 to 1	CC(c1c(Cl)ccc(F)c1Cl)c1c[nH]c2ncc(C3=CCN(C=O)CC3)cc12 (stereo not shown) [Example 38, 4-{3-[1-(2,6-Dichloro-3-fluorophenyl)ethyl]-1H-pyrrolo[2,3-b]pyridin-5-yl}-3,6-dihydro-2H-pyridine-1-carbaldehyde]

SMILES	IC50 (MKN45 cells) [µM]	IC50 (phosphorylated c-MET) [µM]
CC(c1c(Cl)ccc(F)c1Cl)c1c[nH]c2ncc(C3=CCNCC3)cc12 (stereo not shown) [Example 32, 3-[1-(2,6-Dichloro-3-fluorophenyl)-ethyl]-5-(1,2,3,6-tetrahydropyridin-4-yl)-1H-pyrrolo[2,3-b]pyridine]	0.1 to 1	0.1 to 1

Source: patent US8592448B2 (OSI Pharmaceuticals, LLC, priority 2008, dated 2013)
